# Test results: ChEMBL document CHEMBL3885881, “DrugMatrix”
# Organism: Rattus norvegicus
# Format: toxicity, organism-based, Sprague-Dawley
# Conditions: in vivo, 24 h, time 1 day, […]; for ABSOLUTE BASOPHIL / ABSOLUTE EOSINOPHIL / ABSOLUTE LYMPHOCYTE / ABSOLUTE MONOCYTE / BASOPHIL / EOSINOPHIL / ERYTHROCYTE COUNT / HEMATOCRIT / HEMOGLOBIN / LEUKOCYTE COUNT / LYMPHOCYTE / MEAN CORPUSCULAR HEMOGLOBIN / MEAN CORPUSCULAR HEMOGLOBIN CONCENTRATION / MEAN CORPUSCULAR VOLUME / MONOCYTE / NEUTROPHIL / PLATELET COUNT / ABSOLUTE SEGMENTED NEUTROPHIL / NUCLEATED RED BLOOD CELLS: tissue Blood; for ALANINE AMINOTRANSFERASE / ALBUMIN / ALKALINE PHOSPHATASE / ASPARTATE AMINOTRANSFERASE / BLOOD UREA NITROGEN / CARBON DIOXIDE / CHLORIDE / CHOLESTEROL / CREATINE PHOSPHOKINASE / CREATININE / GLUCOSE / LACTATE DEHYDROGENASE / LIPASE / PHOSPHORUS / POTASSIUM / SODIUM / TOTAL BILIRUBIN / TOTAL PROTEIN / URIC ACID: tissue Plasma
# [1] = po, 0 mg/kg, vehicle control, route oral GAVAGE, dose level Control
# [2] = po, 15 mg/kg, route oral GAVAGE, dose level High
# [3] = ip, 0 mg/kg, vehicle control, route intraperitoneal, dose level Control
# [4] = ip, 50 mg/kg, route intraperitoneal, dose level High
# Description: DrugMatrix - Regimen: Single
smiles,measurement,setting,value
CC(CCc1ccc(O)cc1)NCCc1ccc(O)c(O)c1 (centres undefined) [DOBUTAMINE],ABSOLUTE BASOPHIL,[1],46.7 cells/µL
same,ABSOLUTE EOSINOPHIL,[1],130 cells/µL
same,ABSOLUTE LYMPHOCYTE,[1],8720 cells/µL
same,ABSOLUTE MONOCYTE,[1],140 cells/µL
same,BASOPHIL,[1],0.43%
same,EOSINOPHIL,[1],1.33%
same,ERYTHROCYTE COUNT,[1],6.45 x10E6/uL
same,HEMATOCRIT,[1],42.2%
same,HEMOGLOBIN,[1],13.33 G/DL
same,LEUKOCYTE COUNT,[1],10.59 x10E3/uL
same,LYMPHOCYTE,[1],82.13%
same,MEAN CORPUSCULAR HEMOGLOBIN,[1],20.67 pg
same,MEAN CORPUSCULAR HEMOGLOBIN CONCENTRATION,[1],31.6 G/DL
same,MEAN CORPUSCULAR VOLUME,[1],65.4 fL
same,MONOCYTE,[1],1.37%
same,NEUTROPHIL,[1],14.3%
same,PLATELET COUNT,[1],1048.67 x10E3/uL
same,ALANINE AMINOTRANSFERASE,[1],44 u/L
same,ALBUMIN,[1],3.93 G/DL
same,ALKALINE PHOSPHATASE,[1],551.33 u/L
same,ASPARTATE AMINOTRANSFERASE,[1],97 u/L
same,BLOOD UREA NITROGEN,[1],13.5 mg/dL
same,CARBON DIOXIDE,[1],37.33 mmol/L
same,CHLORIDE,[1],102.33 MEQ/L
same,CHOLESTEROL,[1],83 mg/dL
same,CREATINE PHOSPHOKINASE,[1],365.33 u/L
same,CREATININE,[1],0.4 mg/dL
same,GLUCOSE,[1],189 mg/dL
same,LACTATE DEHYDROGENASE,[1],170.33 u/L
same,LIPASE,[1],10.67 u/L
same,PHOSPHORUS,[1],11.53 mg/dL
same,POTASSIUM,[1],5.63 MEQ/L
same,SODIUM,[1],144.33 MEQ/L
same,TOTAL BILIRUBIN,[1],0.4 mg/dL
same,TOTAL PROTEIN,[1],6.27 G/DL
same,URIC ACID,[1],0.87 mg/dL
same,ABSOLUTE BASOPHIL,[2],16.7 cells/µL
same,ABSOLUTE EOSINOPHIL,[2],56.7 cells/µL
same,ABSOLUTE LYMPHOCYTE,[2],5150 cells/µL
same,ABSOLUTE MONOCYTE,[2],130 cells/µL
same,BASOPHIL,[2],0.23%
same,EOSINOPHIL,[2],1%
same,ERYTHROCYTE COUNT,[2],6.18 x10E6/uL
same,HEMATOCRIT,[2],41.87%
same,HEMOGLOBIN,[2],13.57 G/DL
same,LEUKOCYTE COUNT,[2],6.42 x10E3/uL
same,LYMPHOCYTE,[2],79.73%
same,MEAN CORPUSCULAR HEMOGLOBIN,[2],21.9 pg
same,MEAN CORPUSCULAR HEMOGLOBIN CONCENTRATION,[2],32.3 G/DL
same,MEAN CORPUSCULAR VOLUME,[2],67.7 fL
same,MONOCYTE,[2],2.1%
same,NEUTROPHIL,[2],16.6%
same,PLATELET COUNT,[2],1219 x10E3/uL
same,ALANINE AMINOTRANSFERASE,[2],48 u/L
same,ALBUMIN,[2],3.87 G/DL
same,ALKALINE PHOSPHATASE,[2],483.33 u/L
same,ASPARTATE AMINOTRANSFERASE,[2],106 u/L
same,BLOOD UREA NITROGEN,[2],13.67 mg/dL
same,CARBON DIOXIDE,[2],36.33 mmol/L
same,CHLORIDE,[2],105 MEQ/L
same,CHOLESTEROL,[2],67.33 mg/dL
same,CREATINE PHOSPHOKINASE,[2],728.67 u/L
same,CREATININE,[2],0.5 mg/dL
same,GLUCOSE,[2],182.33 mg/dL
same,LACTATE DEHYDROGENASE,[2],183.67 u/L
same,LIPASE,[2],13.67 u/L
same,PHOSPHORUS,[2],12.43 mg/dL
same,POTASSIUM,[2],5.77 MEQ/L
same,SODIUM,[2],145 MEQ/L
same,TOTAL BILIRUBIN,[2],0.33 mg/dL
same,TOTAL PROTEIN,[2],6.17 G/DL
same,URIC ACID,[2],1.47 mg/dL
ClC(Cl)=C(Cl)C(Cl)=C(Cl)Cl [HEXACHLOROBUTADIENE],ABSOLUTE EOSINOPHIL,[3],212 CELLS/uL
same,ABSOLUTE LYMPHOCYTE,[3],10220.17 CELLS/uL
same,ABSOLUTE MONOCYTE,[3],368.83 CELLS/uL
same,ABSOLUTE SEGMENTED NEUTROPHIL,[3],1749 CELLS/uL
same,BASOPHIL,[3],0%
same,EOSINOPHIL,[3],1.67%
same,ERYTHROCYTE COUNT,[3],5.74 x10E6/uL
same,HEMATOCRIT,[3],35.72%
same,HEMOGLOBIN,[3],13 G/DL
same,LEUKOCYTE COUNT,[3],12.55 x10E3/uL
same,LYMPHOCYTE,[3],81.83%
same,MEAN CORPUSCULAR HEMOGLOBIN,[3],22.65 pg
same,MEAN CORPUSCULAR HEMOGLOBIN CONCENTRATION,[3],36.42 G/DL
same,MEAN CORPUSCULAR VOLUME,[3],62.18 fL
same,MONOCYTE,[3],2.83%
same,NEUTROPHIL,[3],13.67%
same,NUCLEATED RED BLOOD CELLS,[3],0 /100WBC
same,PLATELET COUNT,[3],841.83 x10E3/uL
same,ALANINE AMINOTRANSFERASE,[3],54 u/L
same,ALBUMIN,[3],4.15 G/DL
same,ALKALINE PHOSPHATASE,[3],357.33 u/L
same,ASPARTATE AMINOTRANSFERASE,[3],116 u/L
same,BLOOD UREA NITROGEN,[3],14.17 mg/dL
same,CARBON DIOXIDE,[3],34.5 mmol/L
same,CHLORIDE,[3],99.17 MEQ/L
same,CHOLESTEROL,[3],79.17 mg/dL
same,CREATININE,[3],0.2 mg/dL
same,GLUCOSE,[3],143.33 mg/dL
same,LACTATE DEHYDROGENASE,[3],187.17 u/L
same,LIPASE,[3],8.83 u/L
same,PHOSPHORUS,[3],11.4 mg/dL
same,POTASSIUM,[3],6.36 MEQ/L
same,SODIUM,[3],143.32 MEQ/L
same,TOTAL BILIRUBIN,[3],0.23 mg/dL
same,TOTAL PROTEIN,[3],6.22 G/DL
same,URIC ACID,[3],1.25 mg/dL
same,ABSOLUTE EOSINOPHIL,[4],167 CELLS/uL
same,ABSOLUTE LYMPHOCYTE,[4],9489 CELLS/uL
same,ABSOLUTE MONOCYTE,[4],340.67 CELLS/uL
same,ABSOLUTE SEGMENTED NEUTROPHIL,[4],2070 CELLS/uL
same,BASOPHIL,[4],0%
same,EOSINOPHIL,[4],1.33%
same,ERYTHROCYTE COUNT,[4],5.16 x10E6/uL
same,HEMATOCRIT,[4],31.83%
same,HEMOGLOBIN,[4],11.8 G/DL
same,LEUKOCYTE COUNT,[4],12.07 x10E3/uL
same,LYMPHOCYTE,[4],79.33%
same,MEAN CORPUSCULAR HEMOGLOBIN,[4],22.87 pg
same,MEAN CORPUSCULAR HEMOGLOBIN CONCENTRATION,[4],37.07 G/DL
same,MEAN CORPUSCULAR VOLUME,[4],61.67 fL
same,MONOCYTE,[4],2.67%
same,NEUTROPHIL,[4],16.67%
same,NUCLEATED RED BLOOD CELLS,[4],0 /100WBC
same,PLATELET COUNT,[4],549 x10E3/uL
same,ALANINE AMINOTRANSFERASE,[4],65.67 u/L
same,ALBUMIN,[4],4.2 G/DL
same,ALKALINE PHOSPHATASE,[4],368.67 u/L
same,ASPARTATE AMINOTRANSFERASE,[4],251.67 u/L
same,BLOOD UREA NITROGEN,[4],15.33 mg/dL
same,CARBON DIOXIDE,[4],30.33 mmol/L
same,CHLORIDE,[4],100.67 MEQ/L
same,CHOLESTEROL,[4],75.67 mg/dL
same,CREATININE,[4],0.22 mg/dL
same,GLUCOSE,[4],192.33 mg/dL
same,LACTATE DEHYDROGENASE,[4],377.67 u/L
same,LIPASE,[4],9 u/L
same,PHOSPHORUS,[4],12.03 mg/dL
same,POTASSIUM,[4],5.96 MEQ/L
same,SODIUM,[4],144.97 MEQ/L
same,TOTAL BILIRUBIN,[4],0.23 mg/dL
same,TOTAL PROTEIN,[4],6.1 G/DL
same,URIC ACID,[4],1.2 mg/dL
